Experimental data: patent EP3351262A1, “CURAGLUTIDE FOR IN TREATMENT OF PREDIABETES, DIABETES, OBESITY AND METABOLIC DISEASES ASSOCIATED THERETO” (Istanbul Universitesi Rektorlugu, priority 2016, dated 2018)
Values joined by “and” are separate entries in the source; they are usually repeats but may differ in a detail not shown here. Equal entries are not always repeated.

What was measured:
Type in all cases: cell-based, rat
cytochrome-c = assay: Western blotting of apoptotic protein cytochrome-c in cell lysates; conditions: for amount of cytochrome-c: control 1.02±0.02; for cytochrome-c amounts: INS-1 cells, normalized to β-actin
Method: (§1) Trypsin is applied to 75 cm^2 flask containing INS-1 […] beta cells and it is centrifuged in 1500 rpm for 15 minutes. According to the density of pellet formed after centrifuge, it is centrifuged at 4 °C in 1500 rpm for 5 minutes by providing the washing with pipetting with PBS and transferring into 2 ml eppendorf. The supernatant was removed, lysis buffer was added according to the density of pellet and pipetting is performed carefully. It was left for 30 minutes on the ice by vortexing in every 10 minutes. Then the cells were allowed to lysis by ultrasonication for 10 seconds for 5 times, keeping on ice for 10 seconds and they were centrifuged at 4 °C in 13000 rpm for 10 minutes. The supernatant occurred was taken to 0,2 ml eppendorf tubes, and they were taken to -86 °C temperature. These operations were repeated for 3 times for each of the control and experiment groups.
(§2) Bradford method was used in order to determine the protein content. First, a standard curve was formed by using BSA (bovine serum albumin) having a concentration of 1.46 mg/ml. This curve was prepared as following: Bradford solution was added into 80 µg/ml, 40 µg/ml, 20 µg/ml, 10 µg/ml BSA, their absorbance was measured in 595 nm, it was diluted in a way that the lysates are 1/100 and 160 µl was taken, their absorbance in the same wavelengths was determined. After absorbance/concentration graph of the standards was obtained, the concentrations of the samples whose concentrations are […] were determined by using the slope equation of this graph.
(§3) Protein bands separated by electrophoresis in gel were transferred from the gel into nitrocellulose membrane. After membrane transferring operation, transfer efficiency was controlled for 15 minutes by using Ponceau S painting solution.
(§4) The membrane wherein the proteins were transferred, was incubated at room temperature for 1 hour with blocking solution prepared with skimmed milk powder. The membranes were incubated with primary antibodies suitable diluting ratios (Table 1) for 1 night at +4 °C, following the blocking operation. Following this operation, washed membranes were treated with peroxidase marked goat anti-rabbit secondary IgGs (Santa Cruz, CA, USA, sc-2004) at room temperature for 1 hour. Following the treatment with secondary antibodies of membranes, they were washed with washing solution and shaken with pure water. Then, the specific protein bands were monitored by KodakGL1500 gel monitoring system, by chemiluminescence method using Western Blotting Luminol Reagent (Santa Cruz, CA, USA, sc-2048) chemiluminescence substrate. Their densitometric analysis were performed by "Kodak Molecular Imaging Systems" software. The statistical analysis between the bands were performed by normalizing the band densities of the protein samples whose densitometric analysis were performed, to the density of β-actin protein. Table 1: The primary antibodies used in Western blotting method, the dilution ratios and periods thereof
(§5) In order to determine the apoptosis dose, p 53, cytochrome-c and active caspase-3 protein amounts were determined by western blotting method by obtaining lysate from the cells in which 0.75, 1,1.75,2,2.5 and 3 mM palmitic acid were applied. The graph obtained from western blotting bands and the calculation performed as a result of the analysis of these bands is shown in Figure 3.
(§6) The amount of intracellular proteins such as p53, cytochrome-c and active caspase-3 were observed by western blotting in order to examine the effect of curaglutide on apoptosis stimulated by 2 mM palmitic acid in INS-1 beta cells.

INS-1 cells = assay: Lactate dehydrogenase (LDH) release cytotoxicity test (necrosis); conditions: for % cytotoxicity values: LDH secretion; for cytotoxicity value percentages: 24 h, positive control (lysis) 100%
Method: Lactate dehydrogenase (LDH) release test is based on the measurement of the activity of lactate dehydrogenase which is a cytoplasmic enzyme released from the dead cells or cells with damaged plasma membrane and it is used in cellular cytotoxicity assessment. The cytotoxic effect of palmitic acid on […] pancreatic INS-1 cell strain was determined by LDH activity released from the damaged cells and for this purpose Cytotoxicity Determination Kit, LDH (Roche Molecular Marker) was used.
In LDH test, as well as the experimental groups wherein palmitic acid was applied, negative control group for spontaneous LDH release from the cells and positive control group for LDH release were studied. Since palmitic acid in 0.5, 0.75 and 1 mM doses decreases the cell viability, these doses and the control group of the highest dose were studied. The cells were removed by trypsin-EDTA and centrifuged, after growth in 75 cm^2 flask. The cells were suspended in medium in a way such that there would be 50 000 cells in 100 µl, and 100 µl cell suspension was transferred into plates with 96 wells. 10 wells were studied for each of the control and experiment groups and the experiment was repeated for 3 times. After the incubation for 24 hours, the control groups were washed with PBS, and they were freshened with the medium without sodium pyruvate and beta-mercaptoethanol. The medium of the experiment groups was changed with the medium containing different concentrations of palmitic acid. Following the incubation of the cells with palmitic acid for 24 hours, LDH activity released from the cells was determined according to the instructions of the manufacturer. 5 µl lysis solution (2% Triton-X-100) was added to the wells of positive control group and the plate was incubated at 37 °C for 15 minutes. In order to measure LDH activity, the fresh reaction mixture prepared containing catalyst (Diaphorase+NAD mixture) and paint solution (Iodotetrazolium chloride (INT) and sodium lactate) was added to each of the wells. Following the incubation at room temperature for 30 minutes, the reaction was stopped by adding 50 µl stopping solution (IN HCl) to each of the wells. The plates were shaken in an orbital shaker for 10 seconds and the spectrophotometric absorbance was measured in 490 nm test wavelength and 690 nm reference wavelength. The results were determined as "cytotoxicity %". The average absorbance values of negative control were extracted from control and experiment groups and they were calculated by using the formula below by comparing control and experiment groups according to positive control group, and by assuming that positive control group is 100% cytotoxic: 100% Cytotoxicity = ((Experiment or Control Value)−(Negative Control))/((Positive Control)−(Negative Control)) × 100 [formula]
Lactate dehydrogenase release in INS-1 cells wherein different palmitic acid doses were applied was measured using cytotoxicity kit and the results are shown in Figure 4.
Protective and therapeutic effect of 10 nM curaglutide on necrosis is shown in Figure 10 by the evaluation of LDH secretion at 3 and 4 mM doses in INS-1 beta cells. According to the results, in INS-1 beta cells % cytotoxicity values are 48.2±2 in the group where 3 mM dose (necrotic dose) of palmitic acid was administered, 11.6±2.9 in the group where 10 nM curaglutide was administered as a protective against necrotic dose, 11.6±4.8 in the group where 10 nM curaglutide was supplied as a curative agent in necrotic dose, 81.3±5.9 in the group where 4 mM dose of palmitic acid was administered, […] in the group where curaglutide was administered as a protective against 4 mM palmitic acid, 68.2±7.2 in the group where 10 nM curaglutide was administered as therapeutic at 4 mM dose of palmitic acid. As compared to the control group, statistically meaningful results were obtained in both doses in terms of protective effect (p<0,0001). […]

active caspase-3 = assay: Western blotting of apoptotic protein active caspase-3 in cell lysates; conditions: for amount of active caspase-3: control 1.07±0.01; for active caspase-3 amounts: INS-1 cells, normalized to β-actin
Method: as §1, §2, §3, §4, §5, §6

[1] = 10 nM curaglutide as curative agent, 2 mM palmitic acid (apoptotic dose)
[2] = 10 nM curaglutide as protector against 2 mM palmitic acid (apoptotic dose)

For `CC[C@H](C)[C@H](NC(=O)[C@H](Cc1ccccc1)NC(=O)[C@H](CCC(=O)O)NC(=O)[C@H](CCCCN)NC(=O)[C@H](C)NC(=O)[C@H](C)NC(=O)[C@H](CCC(N)=O)NC(=O)CNC(=O)[C@H](CCC(=O)O)NC(=O)[C@H](CC(C)C)NC(=O)[C@H](Cc1ccc(O)cc1)NC(=O)[C@H](CO)NC(=O)[C@H](CO)NC(=O)[C@@H](NC(=O)[C@H](CC(=O)O)NC(=O)[C@H](CO)NC(=O)[C@@H](NC(=O)[C@H](Cc1ccccc1)NC(=O)[C@@H](NC(=O)CNC(=O)[C@H](CCC(=O)O)NC(=O)[C@H](C)NC(=O)[C@H](Cc1c[nH]cn1)NC(C)=O)[C@@H](C)O)[C@@H](C)O)C(C)C)C(=O)N[C@@H](C)C(=O)N[C@@H](Cc1c[nH]c2ccccc12)C(=O)N[C@@H](CC(C)C)C(=O)N[C@H](C(=O)N[C@@H](CCCCN)C(N)=O)C(C)C` [curaglutide], the amount of cytochrome-c (cytochrome-c; [1]) was 0.67±0.07, the amount of cytochrome-c (cytochrome-c; [2]) was 0.80±0.10 and the “% cytotoxicity values” (INS-1 cells; 10 nM curaglutide as curative agent, 3 mM palmitic acid (necrotic dose)) was 11.6±4.8%. The “% cytotoxicity values” (INS-1 cells; 10 nM curaglutide as protective against 3 mM palmitic acid (necrotic dose)) was 11.6±2.9%, the “% cytotoxicity values” (INS-1 cells; 10 nM curaglutide as therapeutic at 4 mM palmitic acid) was 68.2±7.2% and the “% cytotoxicity values” (INS-1 cells; curaglutide as protective against 4 mM palmitic acid) was 45.8±6.8%. The “amount of active caspase-3” value (active caspase-3; [1]) was 0.54±0.00 and the “amount of active caspase-3” value (active caspase-3; [2]) was 0.67±0.00.
`CCCCCCCCCCCCCCCC(=O)O` [palmitic acid] gave a cytochrome-c amounts (cytochrome-c; 0.75 mM palmitic acid, control 1.05±0.02) of 1.07±0.02, a cytochrome-c amounts (cytochrome-c; 1 mM palmitic acid, control 1.05±0.02) of 1.06±0.01 and a cytochrome-c amounts (cytochrome-c; 1.75 mM palmitic acid, control 1.05±0.02) of 1.07±0.05. The cytochrome-c amounts (cytochrome-c; 2 mM palmitic acid (apoptotic dose), control 1.05±0.02 / 1.02±0.02) was 1.23±0.00 and 1.22±0.00, the cytochrome-c amounts (cytochrome-c; 2.5 mM palmitic acid, control 1.05±0.02) was 1.11±0.04 and the cytochrome-c amounts (cytochrome-c; 3 mM palmitic acid, control 1.05±0.02) was 1.09±0.02. The cytotoxicity value percentages (INS-1 cells; 1 mM palmitic acid) was 1±0%, the cytotoxicity value percentages (INS-1 cells; 2 mM palmitic acid) was 13.5±2.4% and the cytotoxicity value percentages (INS-1 cells; 3 mM palmitic acid (necrotic dose)) was 48.2±2%. The cytotoxicity value percentages (INS-1 cells; 4 mM palmitic acid) was 81.3±5.9%, the “active caspase-3 amounts” value (active caspase-3; 0.75 mM palmitic acid, control 1.08±0.00) was 1.03±0.03 and the “active caspase-3 amounts” value (active caspase-3; 1 mM palmitic acid, control 1.08±0.00) was 1.03±0.00. The “active caspase-3 amounts” value (active caspase-3; 1.75 mM palmitic acid, control 1.08±0.00) was 1.02±0.05, the “active caspase-3 amounts” value (active caspase-3; 2 mM palmitic acid (apoptotic dose), control 1.08±0.00 / 1.07±0.01) was 1.26±0.00 and 1.22±0.00 and the “active caspase-3 amounts” value (active caspase-3; 2.5 mM palmitic acid, control 1.08±0.00) was 1.15±0.03. For the same molecule, the “active caspase-3 amounts” value (active caspase-3; 3 mM palmitic acid, control 1.08±0.00) was 1.06±0.00.
